Reference: patent US9751837B2, “Kinase inhibitors” (RESPIVERT LIMITED, priority 2014, dated 2017)
Converted amounts (≈) assume the structure as drawn. Where two headings read alike, the source gives them in different places.

What was measured:
[1] = target: GSK 3α (Homo sapiens (Human), UniProt P49840); assay: GSK 3α enzyme inhibition (Method 2), Z-LYTE FRET; type: biochemical; settings: read-out: IC50 Values for Enzyme Inhibition GSK3α
Description: The enzyme inhibitory activities of compounds disclosed herein are determined by FRET using synthetic peptides labelled with both donor and acceptor fluorophores (Z-LYTE, Invitrogen Ltd., Paisley, UK).
The following two assay variants can be used for determination of GSK 3α inhibition.
The inhibitory activities of compounds of the invention against the GSK 3α enzyme isoform (Invitrogen), are evaluated by determining the level of activation/phosphorylation of the target peptide. The GSK3-α protein (500 ng/mL, 2.5 μL) is mixed with the test compound (2.5 μL at either 4 μg/mL, 0.4 μg/mL, 0.04 μg/mL, or 0.004 μg/mL) for 2 hr at RT. The FRET peptide (8 μM, 2.5 μL), which is a phosphorylation target for GSK3α, and ATP (40 μM, 2.5 μL) are then added to the enzyme/compound mixture and the resulting mixture incubated for 1 hr. Development reagent (protease, 5 μL) is added for 1 hr prior to detection in a fluorescence microplate reader (Varioskan® Flash, ThermoFisher Scientific).
In all cases, the site-specific protease cleaves non-phosphorylated peptide only and eliminates the FRET signal. Phosphorylation levels of each reaction are calculated using the ratio of coumarin emission (donor) over fluorescein emission (acceptor), for which high ratios indicate high phosphorylation and low ratios indicate low phosphorylation levels.
This method follows the same steps as Method 1 above, but utilises a shorter period of mixing of the test compound (105 minutes instead of 2 hours) with the GSK3-α protein. In addition, the concentrations of test compound employed are either 10 μg/mL, 1 μg/mL, 0.1 μg/mL, or 0.01 μg/mL

[2] = Solubility in fasted-state simulated colonic fluid (FaSSCoF) at pH 6.5; type: physicochemical; settings: 25 °C, pH 6.5, fassgf or other biorelevant, thermodynamic from solid
In short: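 Compounds were suspended at up to 2-10 mg/mL in pH 6.5 Tris/maleate FaSSCoF containing a five-bile-acid mixture, phosphatidylcholine, palmitic acid and BSA. After 24 h equilibration at 25° C the suspension was filtered and the filtrate quantified by HPLC peak area against a standard.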

[3] = system: Jurkat cells; assay: Cell cytotoxicity assay (r); type: cell-based, human; settings: 24 hours
In short: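 Viability read by flow cytometry as the fraction of propidium iodide-negative cells (7.5 μg/mL PI, 15 min), relative to 1.0% DMSO control. Beforehand, 1×10^5 Jurkat cells in RPMI/10% FBS were treated 24 h at 37° C., 5% CO2 with test compound at final 20, 5 or 1 μg/mL.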

[4] = Pharmacokinetics and total colon distribution after single oral administration; type: in vivo, male C57BL/6 mice; settings: male, C57BL/6, mouse, mice, Ex. 16 measured after oral 5 mg/kg of Ex. 19 (Na salt)
Description: Studies were conducted by Sai Life Sciences (Hinjewadi, Pune, India) to investigate the systemic pharmacokinetics and total colon tissue distribution of compounds of the invention. In particular, pharmacokinetic studies were carried out in male C57BL/6 mice following a single oral administration of the compound.

[5] = pH 6.5 FaSSCoF Solubility (mg/mL) Run 1
[6] = pH 6.5 FaSSCoF Solubility (mg/mL) Run 2
[7] = blood, read-out: Mean blood concentration
[8] = total colon, read-out: total colon level

GSK 3α, sequence (P49840 whole entry): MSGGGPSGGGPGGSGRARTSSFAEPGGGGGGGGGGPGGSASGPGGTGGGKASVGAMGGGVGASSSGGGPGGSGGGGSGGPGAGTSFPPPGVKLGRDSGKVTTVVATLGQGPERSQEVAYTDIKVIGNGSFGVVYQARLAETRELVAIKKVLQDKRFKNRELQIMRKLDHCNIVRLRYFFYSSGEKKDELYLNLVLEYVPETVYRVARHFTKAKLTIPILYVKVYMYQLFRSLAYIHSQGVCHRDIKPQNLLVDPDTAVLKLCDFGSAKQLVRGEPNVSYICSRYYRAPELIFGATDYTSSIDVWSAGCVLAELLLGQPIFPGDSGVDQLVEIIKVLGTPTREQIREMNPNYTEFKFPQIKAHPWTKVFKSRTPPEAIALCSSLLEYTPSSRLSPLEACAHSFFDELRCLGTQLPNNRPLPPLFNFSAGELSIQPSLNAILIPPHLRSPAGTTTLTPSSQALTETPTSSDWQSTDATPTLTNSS

SMILES | IC50 [1] | solubility thermodynamic at 24 h [2, 5] | solubility thermodynamic at 24 h [2, 6] | other results
COc1cc(Nc2cc(Oc3ccc(NC(=O)Nc4cc(C(C)(C)C)cc(NS(C)(=O)=O)c4OC)c4ccccc34)ccn2)cc(OC)c1C(=O)NCCN1CCOCC1 [17(ae), 4-[[4-[[4-[[5-tert-butyl-3-(methanesulfonamido)-2-methoxy-phenyl]carbamoylamino]-1-naphthyl]oxy]-2-pyridyl]amino]-2,6-dimethoxy-N-(2-morpholinoethyl)benzamide] | 3000 nM | 11 µg/mL (≈ 13.1 µM) | 12 µg/mL (≈ 14.3 µM) | 
COc1cc(Nc2cc(Oc3ccc(NC(=O)Nc4cc(C(C)(C)C)cc(NS(C)(=O)=O)c4OC)c4ccccc34)ccn2)ccc1C(=O)N[C@@H](C)CN1CCOCC1 [17(v), 4-[[4-[[4-[[5-tert-butyl-3-(methanesulfonamido)-2-methoxy-phenyl]carbamoylamino]-1-naphthyl]oxy]-2-pyridyl]amino]-2-methoxy-N-[(1S)-1-methyl-2-morpholino-ethyl]benzamide] | > 12100 nM | 8 µg/mL (≈ 9.69 µM) | 8 µg/mL (≈ 9.69 µM) | 
COc1cc(Nc2cc(Oc3ccc(NC(=O)Nc4cc(C(C)(C)C)cc(NS(C)(=O)=O)c4OC)c4ccccc34)ccn2)ccc1C(=O)NCC1CCN(C)CC1 [17(ak), 4-[[4-[[4-[[5-tert-butyl-3-(methanesulfonamido)-2-methoxy-phenyl]carbamoylamino]-1-naphthyl]oxy]-2-pyridyl]amino]-2-methoxy-N-[(1-methyl-4-piperidyl)methyl]benzamide] | 1820 nM |  |  | % Viability at 1 μg/mL ([3]; 1 μg/mL): 99.0%; % Viability at 20 μg/mL [3]: 0.4%
COc1cc(Nc2cc(Oc3ccc(NC(=O)Nc4cc(C(C)(C)C)cc(NS(C)(=O)=O)c4OC)c4ccccc34)ccn2)ccc1C(=O)N(C)CCCN1CCOCC1 [17(af), 4-[[4-[[4-[[5-tert-butyl-3-(methanesulfonamido)-2-methoxy-phenyl]carbamoylamino]-1-naphthyl]oxy]-2-pyridyl]amino]-2-methoxy-N-methyl-N-(3-morpholinopropyl)benzamide] | 680 nM | 10 µg/mL (≈ 11.9 µM) | 10 µg/mL (≈ 11.9 µM) | 
COc1cc(Nc2cc(Oc3ccc(NC(=O)Nc4cc(C(C)(C)C)cc(NS(C)(=O)=O)c4OC)c4ccccc34)ccn2)ccc1C(=O)NCCN1CCCCC1 [17(p), 4-[[4-[[4-[[5-tert-butyl-3-(methanesulfonamido)-2-methoxy-phenyl]carbamoylamino]-1-naphthyl]oxy]-2-pyridyl]amino]-2-methoxy-N-[2-(1-piperidyl)ethyl]benzamide] | 4680 nM |  |  | % Viability at 20 μg/mL [3]: 1.5%
COc1cc(Nc2cc(Oc3ccc(NC(=O)Nc4cc(C(C)(C)C)cc(NS(C)(=O)=O)c4OC)c4ccccc34)ccn2)ccc1C(=O)NCCCN1CCOCC1 [17(b), 4-[[4-[[4-[[5-tert-butyl-3-(methanesulfonamido)-2-methoxy-phenyl]carbamoylamino]-1-naphthyl]oxy]-2-pyridyl]amino]-2-methoxy-N-(3-morpholinopropyl)benzamide] | 4490 nM | 15 µg/mL (≈ 18.2 µM) | 15 µg/mL (≈ 18.2 µM) | 
COc1cc(Nc2cc(Oc3ccc(NC(=O)Nc4cc(C(C)(C)C)cc(NS(C)(=O)=O)c4OC)c4ccccc34)ccn2)ccc1C(=O)NCCN1CCNCC1 [17(w), 4-[[4-[[4-[[5-tert-butyl-3-(methanesulfonamido)-2-methoxy-phenyl]carbamoylamino]-1-naphthyl]oxy]-2-pyridyl]amino]-2-methoxy-N-(2-piperazin-1-ylethyl)benzamide] | 674 nM |  |  | 

Now from value to compound, other results behind:

IC50 [1] | solubility thermodynamic at 24 h [2, 5] | solubility thermodynamic at 24 h [2, 6] | SMILES | other results
2880 nM |  |  | COc1cc(Nc2cc(Oc3ccc(NC(=O)Nc4cc(C(C)(C)C)cc(NS(C)(=O)=O)c4OC)c4ccccc34)ccn2)ccc1C(=O)NCCN1CCN(CCO)CC1 [17(z), 4-[[4-[[4-[[5-tert-butyl-3-(methanesulfonamido)-2-methoxy-phenyl]carbamoylamino]-1-naphthyl]oxy]-2-pyridyl]amino]-N-[2-[4-(2-hydroxyethyl)piperazin-1-yl]ethyl]-2-methoxy-benzamide] | % Viability at 20 μg/mL [3]: 2.0%
3730 nM | 4 µg/mL (≈ 4.81 µM) | 4 µg/mL (≈ 4.81 µM) | COc1cc(Nc2cc(Oc3ccc(NC(=O)Nc4cc(C(C)(C)C)cc(NS(C)(=O)=O)c4OC)c4ccccc34)ccn2)ccc1C(=O)NCCOCCOCCO [Example 16, 4-[[4-[[4-[[5-tert-Butyl-3-(methanesulfonamido)-2-methoxy-phenyl]carbamoylamino]-1-naphthyl]oxy]-2-pyridyl]amino]-N-[2-[2-(2-hydroxyethoxy)ethoxy]ethyl]-2-methoxy-benzamide] | concentration at 0.5 h [4, 7]: 1.3 ng/mL; concentration at 1 h [4, 7]: 1.4 ng/mL; concentration at 2 h [4, 7]: 0.6 ng/mL; concentration at 4 h [4, 7]: 0 ng/mL; concentration at 6 h [4, 7]: 0 ng/mL; concentration at 8 h [4, 7]: 0.2 ng/mL; concentration at 12 h [4, 7]: 0 ng/mL; concentration at 24 h [4, 7]: 0 ng/mL; concentration at 0.5 h [4, 8]: 9.5 ng/g; concentration at 1 h [4, 8]: 110 ng/g; concentration at 2 h [4, 8]: 2400 ng/g; concentration at 4 h [4, 8]: 3350 ng/g; concentration at 6 h [4, 8]: 3320 ng/g; concentration at 8 h [4, 8]: 3420 ng/g; concentration at 12 h [4, 8]: 5090 ng/g; concentration at 24 h [4, 8]: 0 ng/g
139 nM | 6 µg/mL (≈ 9.23 µM) | 6 µg/mL (≈ 9.23 µM) | COc1cc(Nc2cc(Oc3ccc(NC(=O)Nc4cc(C(C)(C)C)cc(C(N)=O)c4OC)c4ccccc34)ccn2)ccc1C(=O)O [Example 3, 4-((4-((4-(3-(5-(tert-Butyl)-3-carbamoyl-2-methoxyphenyl)ureido)naphthalen-1-yl)oxy)pyridin-2-yl)amino)-2-methoxybenzoic acid] | 
412 nM | 15 µg/mL (≈ 17.5 µM) | 9 µg/mL (≈ 10.5 µM) | COc1cc(Nc2cc(Oc3ccc(NC(=O)Nc4cc(C(C)(C)C)cc(NS(C)(=O)=O)c4OC)c4ccccc34)ccn2)ccc1C(=O)NCCOCCOCCC(=O)O [17(x), 3-[2-[2-[[4-[[4-[[4-[[5-tert-butyl-3-(methanesulfonamido)-2-methoxyphenyl]carbamoyl-amino]-1-naphthyl]oxy]-2-pyridyl]amino]-2-methoxy-benzoyl]amino]ethoxy]ethoxy]propanoic acid] | 
